Experimental data from patent US7015207B2, “Use of N-acetyl-D-glucosamine in the manufacture of pharmaceutical useful for preventing and treating sexual disorder” (Third Military Medical University, Chinese People's …, priority 2001, dated 2006).

Columns and labels:
Proteus Mirabilis = assay: Promoting wave test (bacterial bio-wave growth model); format: cell-based; conditions: final concentration of 0.5% on LB plate, 37° C.
Excerpt: The following experimental examples are used to illustrate the promoting wave function, low toxicity and effectiveness for preventing and treating the sexual disfunction of the compound of the present invention (the compound of formula (I)). • I. Promoting wave test of the compound of formula (I) • 1. Experimental materials and method: • 1.1 Samples: pure compound of formula (I) • 1.2 Experimental materials: […]
Strain: Proteus Mirabilis (which should comply with the following biological reaction characteristics: dynamics (+), urease (+), lactose (−), glucose (+), H2S (−), phenylalanine deaminase (+).
Culture medium: modified LB culture medium (the component of the composition are: trytones of 1%, yeast extract of 0.5%, sodium chloride 1%, glucose of 0.1%, TTC of 0.002% and pH=7.2˜7.4). • 1.3 Experimental method:
Experimental results and evaluation:
The experiment adopts a bio-wave model which is used to research the promoting wave function of the compound of formula (I). […] Toxicological test of the compound of formula (I), including: • 1. acute toxicity test: including tests of administrating medicine by oral, intravenous injection and maximum limit amount for administration; • 2. […]

sexual disfunction [1] = assay: Clinic tests in male patients with sexual disfunction; format: in vivo, human; conditions: two weeks
Description: 32 examples of male patients were picked out, who had been repeatedly treated for sexual disfunction with current treatment method, but these treatments were failed, the patients are classified clinically into heavy, medium and light degree disease, separately administrated with N-acetyl-D-glucosamine in the form of capsule by oral (500 mg/day) and alcoholic solution (50 mg/1000 ml) by oral (10 ml/day), using two weeks as a period of treatment, and before and after the administration, and comparing the condition of the patient's symptom by detecting luteinizing hormone (LH), follicular stimulating hormone (FSH), prolactin (PRL), testosterone (T), estradiol (E2) and local blood flux. […] After treatment, the curative effect was steady and could be maintained for a long time.

sexual disfunction [2] = assay: Test for volunteers (voluntary patient with disfunction for more than ten years); format: in vivo, human; conditions: one voluntary patient, 12 capsules (500 mg/grain) by oral in three days
[3] = 32 male patients, capsule 500 mg/day or alcoholic solution 10 ml/day by oral

In the case of `CC(=O)N[C@@H]1[C@@H](O)[C@H](O)[C@@H](CO)O[C@H]1O` [N-acetyl-D-glucosamine], the “promoting wave function (wave pattern of concentric rings compared with control)” value (Proteus Mirabilis) is reported as “many fine waves on each ring emerged”, the cure rate (sexual disfunction [1]; [3]) is reported as 72% and the total effective rate (sexual disfunction [1]; [3]) is reported as 90%. For the same molecule, the “patients in whom treatment failed” value (sexual disfunction [1]; of 32 male patients, oral) was 2 patients, the “patients turned from heavy and medium degree into light degree” value (sexual disfunction [1]; of 32 male patients, oral) was 7 patient and the “patients who became normal after treatment” value (sexual disfunction [1]; of 32 male patients, oral) was 23 patients. For the same molecule, the “duration of the effect” value (sexual disfunction [2]) was “keep normal over two years” and the “sexual function after treatment” value (sexual disfunction [2]) was “sexual function was recovered to normal”.
